Source: ChEMBL document CHEMBL1201862, “PubChem BioAssay data set” (2004)
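Method: 48-hour compound exposure of cells in 96-well plates, five concentrations, linear interpolation of endpoints. The concentration for 50% growth inhibition is given as GI50.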 Calls of active or inactive are those of the source. Cut-off read from the data, not from the text of the source: active = GI50 up to about 1.1 µM and inactive = higher.

Legend:
Experiment in all cases: NCI anticancer screen, dose series, 48 h
SK-MEL-28 = system: SK-MEL-28
SNB-19 = system: SNB-19
SK-MEL-2 = system: SK-MEL-2
MDA-MB-231 = system: MDA-MB-231
NCI-H226 = system: NCI-H226
SN12C = system: SN12C
HCT-15 = system: HCT-15
NCI/ADR-RES = system: NCI/ADR-RES
CCRF-CEM = system: CCRF-CEM
HCT-116 = system: HCT-116
HOP-92 = system: HOP-92
K562 = system: K562
OVCAR-3 = system: OVCAR-3
KM12 = system: KM12
CAKI-1 = system: CAKI-1
NCI-H522 = system: NCI-H522
UACC-62 = system: UACC-62
SF-295 = system: SF-295
UACC-257 = system: UACC-257
COLO 205 = system: COLO 205
A549 = system: A549
LOX IMVI = system: LOX IMVI
TK-10 = system: TK-10
IGROV-1 = system: IGROV-1
EKVX = system: EKVX
MDA-N = system: MDA-N
MDA-MB-435 = system: MDA-MB-435
SK-MEL-5 = system: SK-MEL-5
SNB-75 = system: SNB-75
DU-145 = system: DU-145
OVCAR-5 = system: OVCAR-5
SF-268 = system: SF-268
OVCAR-4 = system: OVCAR-4
SW-620 = system: SW-620
MCF7 = system: MCF7
OVCAR-8 = system: OVCAR-8
UO-31 = system: UO-31
RPMI-8226 = system: RPMI-8226
SF-539 = system: SF-539
HT-29 = system: HT-29
786-0 = system: 786-0
ACHN = system: ACHN
HOP-62 = system: HOP-62
U-251 = system: U-251
SK-OV-3 = system: SK-OV-3
PC-3 = system: PC-3
NCI-H460 = system: NCI-H460
SR = system: SR
M14 = system: M14
HCC 2998 = system: HCC 2998
NCI-H23 = system: NCI-H23
MOLT-4 = system: MOLT-4
A498 = system: A498
Malme-3M = system: Malme-3M
BT-549 = system: BT-549
Hs-578T = system: Hs-578T
HL-60 = system: HL-60
RXF 393 = system: RXF 393

Measured: GI50

C/C=C/c1c(O)c(=O)c2c(OC)cc(OC)c3c4c(OC)cc(OC)c5c(=O)c(O)c(/C=C/C)c(c1c23)c54
active: NCI-H226 < 0.01 µM
6.49 µM: HCT-15
inactive: SK-MEL-28 16.6 µM | SNB-19 1.95 µM | SK-MEL-2 10.2 µM | MDA-MB-231 10.4 µM | SN12C 16.5 µM | NCI/ADR-RES 14.5 µM | CCRF-CEM 5.46 µM | HCT-116 4.84 µM | HOP-92 14.4 µM | K562 3.4 µM | OVCAR-3 3.99 µM | KM12 10.9 µM | CAKI-1 6.14 µM | NCI-H522 4.71 µM | UACC-62 6.3 µM | SF-295 44.5 µM | UACC-257 16.5 µM | COLO 205 3.7 µM | A549 5.97 µM | LOX IMVI 8.55 µM | TK-10 > 10 µM | IGROV-1 5.96 µM | EKVX 16.6 µM | MDA-N 6.87 µM | MDA-MB-435 5.82 µM | SK-MEL-5 5.73 µM | SNB-75 12.2 µM | DU-145 8.07 µM | OVCAR-5 20.5 µM | SF-268 7.66 µM | OVCAR-4 13 µM | SW-620 6.55 µM | MCF7 14.5 µM | OVCAR-8 6.35 µM | UO-31 1.64 µM | RPMI-8226 6.92 µM | SF-539 3.61 µM | HT-29 6.22 µM | 786-0 14.9 µM | ACHN 2.86 µM | HOP-62 16.3 µM | U-251 7.23 µM | SK-OV-3 39.9 µM | PC-3 6.37 µM | NCI-H460 9.48 µM | SR > 100 µM | M14 9.42 µM | HCC 2998 16.6 µM | NCI-H23 7.59 µM | MOLT-4 4.03 µM | A498 32.6 µM | Malme-3M 6.25 µM | BT-549 3.1 µM

C[C@]12C[C@@H](c3ccccc3)Nc3ccccc3N1C(c1ccccc1)=NO2
inactive: SNB-19 89.7 µM | SK-MEL-2 25.6 µM | MDA-MB-231 45.5 µM | NCI-H226 32.4 µM | SN12C 49.3 µM | NCI/ADR-RES 45.1 µM | CCRF-CEM 35.9 µM | HCT-116 37.9 µM | HOP-92 18.5 µM | K562 35.4 µM | Hs-578T 77.8 µM | OVCAR-3 46.8 µM | KM12 33.6 µM | CAKI-1 37.1 µM | NCI-H522 35.9 µM | UACC-62 33.4 µM | SF-295 16 µM | UACC-257 33.8 µM | COLO 205 19 µM | HL-60 46.2 µM | A549 54.3 µM | TK-10 34.4 µM | IGROV-1 38.1 µM | EKVX 24.3 µM | MDA-N 26.2 µM | MDA-MB-435 24.5 µM | SK-MEL-5 16.1 µM | SNB-75 16.6 µM | DU-145 92.3 µM | OVCAR-5 33.2 µM | SF-268 88.5 µM | OVCAR-4 24.9 µM | SW-620 61.1 µM | MCF7 31 µM | OVCAR-8 36.1 µM | UO-31 29.6 µM | RPMI-8226 20.3 µM | SF-539 33.4 µM | HT-29 30.6 µM | 786-0 56.6 µM | ACHN 33.9 µM | HOP-62 77.1 µM | U-251 44.2 µM | SK-OV-3 > 100 µM | PC-3 43 µM | RXF 393 51.6 µM | NCI-H460 52.1 µM | SR 1.8 µM | M14 32.5 µM | HCC 2998 81.3 µM | NCI-H23 30.7 µM | MOLT-4 18 µM | A498 43.3 µM | Malme-3M 42.9 µM | BT-549 40.9 µM
35.4 µM: HCT-15

CC(=O)O[C@H]1C(=O)[C@]2(C)[C@@H](OC(=O)OCCC(O)CO)C[C@H]3OC[C@@]3(OC(C)=O)[C@H]2[C@H](OC(=O)c2ccccc2)[C@]2(O)C[C@H](OC(=O)[C@H](O)[C@@H](NC(=O)c3ccccc3)c3ccccc3)C(C)=C1C2(C)C (stereo partly drawn)
active: SNB-19 0.0445 µM | SK-MEL-2 0.0265 µM | MDA-MB-231 0.0288 µM | NCI-H226 < 0.0228 µM | SN12C < 0.0166 µM | CCRF-CEM < 0.01 µM | HCT-116 < 0.01 µM | K562 < 0.01 µM | Hs-578T < 0.01 µM | OVCAR-3 < 0.01 µM | KM12 < 0.01 µM | NCI-H522 < 0.01 µM | UACC-62 0.0108 µM | SF-295 0.193 µM | UACC-257 0.037 µM | COLO 205 < 0.01 µM | HL-60 < 0.01 µM | A549 0.035 µM | LOX IMVI < 0.01 µM | IGROV-1 < 0.0142 µM | EKVX 0.121 µM | MDA-N < 0.01 µM | MDA-MB-435 < 0.01 µM | SK-MEL-5 0.0172 µM | SNB-75 < 0.01 µM | DU-145 0.0125 µM | OVCAR-5 0.0303 µM | SF-268 < 0.0171 µM | SW-620 < 0.0251 µM | MCF7 < 0.01 µM | OVCAR-8 0.0463 µM | RPMI-8226 < 0.01 µM | SF-539 < 0.01 µM | HT-29 < 0.01 µM | 786-0 0.08 µM | HOP-62 0.0964 µM | U-251 0.0135 µM | SK-OV-3 0.0307 µM | PC-3 < 0.0128 µM | RXF 393 0.213 µM | NCI-H460 < 0.0126 µM | SR < 0.01 µM | M14 0.0461 µM | HCC 2998 < 0.01 µM | NCI-H23 < 0.0127 µM | MOLT-4 < 0.0106 µM | A498 0.783 µM | Malme-3M < 0.01 µM | BT-549 0.0667 µM
inactive: NCI/ADR-RES 15.2 µM | HOP-92 8.63 µM | CAKI-1 2.26 µM | TK-10 2.4 µM | OVCAR-4 13.9 µM | UO-31 8.61 µM | ACHN 3.48 µM
2.14 µM: HCT-15
